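Results reflect a 48-hour exposure of cells in 96-well plates to compound at five concentrations. The concentration for 50% growth inhibition is given as GI50.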 The source made the active and inactive calls. Rule as the data show it: active = GI50 up to about 1.1 µM and inactive = higher.
Legend:
Experiment in all cases: NCI-60 cell line screen, 48 h
SF-268 = test system: SF-268
RPMI-8226 = test system: RPMI-8226
DMS-114 = test system: DMS-114
XF498 = test system: XF498
ACHN = test system: ACHN
SR = test system: SR
TK-10 = test system: TK-10
UACC-62 = test system: UACC-62
IGROV-1 = test system: IGROV-1
A549 = test system: A549
SK-MEL-5 = test system: SK-MEL-5
HT-29 = test system: HT-29
KM12 = test system: KM12
KM-20L2 = test system: KM-20L2
SW-620 = test system: SW-620
A498 = test system: A498
RXF 631 = test system: RXF 631
HL-60 = test system: HL-60
NCI-H460 = test system: NCI-H460
CCRF-CEM = test system: CCRF-CEM
786-0 = test system: 786-0
HOP-18 = test system: HOP-18
CAKI-1 = test system: CAKI-1
MOLT-4 = test system: MOLT-4
HCC 2998 = test system: HCC 2998
OVCAR-3 = test system: OVCAR-3
COLO 205 = test system: COLO 205
SK-MEL-28 = test system: SK-MEL-28
HOP-92 = test system: HOP-92
HCT-15 = test system: HCT-15
NCI-H226 = test system: NCI-H226
SF-295 = test system: SF-295
SNB-75 = test system: SNB-75
Malme-3M = test system: Malme-3M
SN12C = test system: SN12C
U-251 = test system: U-251
SK-OV-3 = test system: SK-OV-3
LXFL 529 = test system: LXFL 529
K562 = test system: K562
OVCAR-5 = test system: OVCAR-5
EKVX = test system: EKVX
HCT-116 = test system: HCT-116
UACC-257 = test system: UACC-257
SNB-78 = test system: SNB-78
NCI-H522 = test system: NCI-H522
SNB-19 = test system: SNB-19
RXF 393 = test system: RXF 393
UO-31 = test system: UO-31
M14 = test system: M14
DMS-273 = test system: DMS-273
NCI-H23 = test system: NCI-H23
OVCAR-4 = test system: OVCAR-4
SK-MEL-2 = test system: SK-MEL-2
OVCAR-8 = test system: OVCAR-8
LOX IMVI = test system: LOX IMVI
HOP-62 = test system: HOP-62
SF-539 = test system: SF-539
M19-MEL = test system: M19-MEL
DLD-1 = test system: DLD-1

COC(=O)C(Cc1nc2ccc(Cl)cc2nc1O)/C(=N/NC(N)=O)C(=O)Nc1ccc(Cl)cc1 (stereo unspecified) was tested, and the GI50 (SF-268) was > 100 µM (inactive), the GI50 (RPMI-8226) was > 100 µM (inactive) and the GI50 (DMS-114) was > 100 µM (inactive). The GI50 (XF498) was > 100 µM (inactive), the GI50 (ACHN) was > 100 µM (inactive) and the GI50 (SR) was > 100 µM (inactive). The GI50 (TK-10) was > 100 µM (inactive), the GI50 (UACC-62) was > 100 µM (inactive) and the GI50 (IGROV-1) was > 100 µM (inactive). The GI50 (A549) was > 100 µM (inactive), the GI50 (SK-MEL-5) was > 100 µM (inactive) and the GI50 (HT-29) was > 100 µM (inactive). For the same molecule, the GI50 (KM12) was > 100 µM (inactive), the GI50 (KM-20L2) was > 100 µM (inactive) and the GI50 (SW-620) was > 100 µM (inactive). The GI50 (A498) was > 100 µM (inactive), the GI50 (RXF 631) was > 100 µM (inactive) and the GI50 (HL-60) was > 100 µM (inactive). For the same molecule, the GI50 (NCI-H460) was > 100 µM (inactive), the GI50 (CCRF-CEM) was > 100 µM (inactive) and the GI50 (786-0) was > 100 µM (inactive). For the same molecule, the GI50 (HOP-18) was > 100 µM (inactive), the GI50 (CAKI-1) was > 100 µM (inactive) and the GI50 (MOLT-4) was > 100 µM (inactive). For the same molecule, the GI50 (HCC 2998) was > 100 µM (inactive), the GI50 (OVCAR-3) was > 100 µM (inactive) and the GI50 (COLO 205) was > 100 µM (inactive). The GI50 (SK-MEL-28) was > 100 µM (inactive), the GI50 (HOP-92) was > 100 µM (inactive) and the GI50 (HCT-15) was over 100 µM. The GI50 (NCI-H226) was > 100 µM (inactive), the GI50 (SF-295) was > 100 µM (inactive) and the GI50 (SNB-75) was > 100 µM (inactive). For the same molecule, the GI50 (Malme-3M) was > 100 µM (inactive), the GI50 (SN12C) was > 100 µM (inactive) and the GI50 (U-251) was > 100 µM (inactive). The GI50 (SK-OV-3) was > 100 µM (inactive), the GI50 (LXFL 529) was > 100 µM (inactive) and the GI50 (K562) was > 100 µM (inactive). For the same molecule, the GI50 (OVCAR-5) was > 100 µM (inactive), the GI50 (EKVX) was 20.4 µM (inactive) and the GI50 (HCT-116) was > 100 µM (inactive). The GI50 (UACC-257) was > 100 µM (inactive), the GI50 (SNB-78) was > 100 µM (inactive) and the GI50 (NCI-H522) was > 100 µM (inactive). The GI50 (SNB-19) was > 100 µM (inactive), the GI50 (RXF 393) was > 100 µM (inactive) and the GI50 (UO-31) was > 100 µM (inactive). For the same molecule, the GI50 (M14) was > 100 µM (inactive), the GI50 (DMS-273) was > 100 µM (inactive) and the GI50 (NCI-H23) was > 100 µM (inactive). For the same molecule, the GI50 (OVCAR-4) was > 100 µM (inactive), the GI50 (SK-MEL-2) was > 100 µM (inactive) and the GI50 (OVCAR-8) was > 100 µM (inactive). For the same molecule, the GI50 (LOX IMVI) was > 100 µM (inactive), the GI50 (HOP-62) was > 100 µM (inactive) and the GI50 (SF-539) was > 100 µM (inactive). For the same molecule, the GI50 (M19-MEL) was > 100 µM (inactive).

Cc1cc(=O)n2c3c(c4c(cc13)c(CO)cc(=O)n4C)OC2 was tested, and the GI50 (SF-268) was 8.18 µM (inactive), the GI50 (RPMI-8226) was 32.1 µM (inactive) and the GI50 (DMS-114) was 14.1 µM (inactive). The GI50 (XF498) was 10.7 µM (inactive), the GI50 (ACHN) was 9.57 µM (inactive) and the GI50 (DLD-1) was 15.7 µM (inactive). The GI50 (TK-10) was 11.8 µM (inactive), the GI50 (UACC-62) was 12.5 µM (inactive) and the GI50 (IGROV-1) was 34.8 µM (inactive). The GI50 (A549) was 36.1 µM (inactive), the GI50 (SK-MEL-5) was 20.1 µM (inactive) and the GI50 (HT-29) was 19.5 µM (inactive). For the same molecule, the GI50 (KM12) was 7.94 µM (inactive), the GI50 (KM-20L2) was 29.9 µM (inactive) and the GI50 (SW-620) was 5.71 µM (inactive). For the same molecule, the GI50 (A498) was 14.6 µM (inactive), the GI50 (RXF 631) was 5.6 µM (inactive) and the GI50 (NCI-H460) was 18 µM (inactive). For the same molecule, the GI50 (CCRF-CEM) was 9.46 µM (inactive), the GI50 (786-0) was 12.6 µM (inactive) and the GI50 (HOP-18) was 19.5 µM (inactive). The GI50 (CAKI-1) was 30.7 µM (inactive), the GI50 (HCC 2998) was 14.8 µM (inactive) and the GI50 (OVCAR-3) was 11.8 µM (inactive). For the same molecule, the GI50 (COLO 205) was 16.5 µM (inactive), the GI50 (SK-MEL-28) was 18.8 µM (inactive) and the GI50 (HOP-92) was 24.4 µM (inactive). For the same molecule, the GI50 (NCI-H226) was 5.22 µM (inactive), the GI50 (SF-295) was 30.3 µM (inactive) and the GI50 (SNB-75) was 19.9 µM (inactive). For the same molecule, the GI50 (Malme-3M) was 8.65 µM (inactive), the GI50 (SN12C) was 12.9 µM (inactive) and the GI50 (U-251) was 6.14 µM (inactive). The GI50 (SK-OV-3) was 20 µM (inactive), the GI50 (LXFL 529) was 5.07 µM (inactive) and the GI50 (K562) was 5.56 µM (inactive). For the same molecule, the GI50 (OVCAR-5) was 16.5 µM (inactive), the GI50 (EKVX) was 64.4 µM (inactive) and the GI50 (HCT-116) was 4.45 µM (inactive). For the same molecule, the GI50 (UACC-257) was 26.2 µM (inactive), the GI50 (SNB-78) was 15 µM (inactive) and the GI50 (NCI-H522) was 4.94 µM (inactive). For the same molecule, the GI50 (SNB-19) was 10.5 µM (inactive), the GI50 (UO-31) was 7.69 µM (inactive) and the GI50 (M14) was 20.6 µM (inactive). The GI50 (DMS-273) was 8.85 µM (inactive), the GI50 (NCI-H23) was 13.5 µM (inactive) and the GI50 (OVCAR-4) was 17.5 µM (inactive). The GI50 (SK-MEL-2) was 7.46 µM (inactive), the GI50 (OVCAR-8) was 6.67 µM (inactive) and the GI50 (LOX IMVI) was 6.85 µM (inactive). The GI50 (HOP-62) was 13 µM (inactive), the GI50 (SF-539) was 7.73 µM (inactive) and the GI50 (M19-MEL) was 12.2 µM (inactive).

In the case of COC(=O)C1=CC2OC13CC1CCC3(C2=O)C1(C)C (stereo unspecified), the GI50 (SF-268) is reported as 10 µM (inactive), the GI50 (RPMI-8226) is reported as 15.1 µM (inactive) and the GI50 (DMS-114) is reported as 7.29 µM (inactive). For the same molecule, the GI50 (XF498) was 3.77 µM (inactive), the GI50 (ACHN) was 8.83 µM (inactive) and the GI50 (TK-10) was 10.4 µM (inactive). The GI50 (UACC-62) was 16.3 µM (inactive), the GI50 (IGROV-1) was 16.7 µM (inactive) and the GI50 (A549) was 31.4 µM (inactive). For the same molecule, the GI50 (SK-MEL-5) was 15.8 µM (inactive), the GI50 (HT-29) was 13.2 µM (inactive) and the GI50 (KM12) was 16.5 µM (inactive). For the same molecule, the GI50 (KM-20L2) was 13.3 µM (inactive), the GI50 (SW-620) was 4.05 µM (inactive) and the GI50 (A498) was 19.1 µM (inactive). The GI50 (RXF 631) was 13.9 µM (inactive), the GI50 (HL-60) was 6.9 µM (inactive) and the GI50 (NCI-H460) was 34.1 µM (inactive). The GI50 (CCRF-CEM) was 3.25 µM (inactive), the GI50 (786-0) was 12.2 µM (inactive) and the GI50 (HOP-18) was 6.46 µM (inactive). The GI50 (CAKI-1) was 2.2 µM (inactive), the GI50 (MOLT-4) was 14 µM (inactive) and the GI50 (HCC 2998) was 14.5 µM (inactive). The GI50 (OVCAR-3) was 5.89 µM (inactive), the GI50 (COLO 205) was 15.5 µM (inactive) and the GI50 (HCT-15) was 5.36 µM. The GI50 (NCI-H226) was 17.1 µM (inactive), the GI50 (SF-295) was 19.6 µM (inactive) and the GI50 (SNB-75) was 7.01 µM (inactive). The GI50 (Malme-3M) was 8.07 µM (inactive), the GI50 (SN12C) was 12.7 µM (inactive) and the GI50 (U-251) was 12.9 µM (inactive). For the same molecule, the GI50 (SK-OV-3) was 21 µM (inactive), the GI50 (LXFL 529) was 4.49 µM (inactive) and the GI50 (K562) was 11.2 µM (inactive). For the same molecule, the GI50 (OVCAR-5) was 19 µM (inactive), the GI50 (EKVX) was > 10 µM (inactive) and the GI50 (HCT-116) was 11.4 µM (inactive). For the same molecule, the GI50 (UACC-257) was 10.4 µM (inactive), the GI50 (SNB-78) was 14.4 µM (inactive) and the GI50 (NCI-H522) was 2.34 µM (inactive). The GI50 (SNB-19) was 21.6 µM (inactive), the GI50 (RXF 393) was 12 µM (inactive) and the GI50 (UO-31) was 5.89 µM (inactive). For the same molecule, the GI50 (M14) was 5.28 µM (inactive), the GI50 (DMS-273) was 11.2 µM (inactive) and the GI50 (NCI-H23) was 16 µM (inactive). For the same molecule, the GI50 (OVCAR-4) was 10.9 µM (inactive), the GI50 (SK-MEL-2) was 15.2 µM (inactive) and the GI50 (OVCAR-8) was 8.04 µM (inactive). For the same molecule, the GI50 (HOP-62) was 23.4 µM (inactive), the GI50 (SF-539) was 14.2 µM (inactive) and the GI50 (M19-MEL) was 11.5 µM (inactive).
